Reference: the RepoRT retention time repository (doi:10.1021/acs.analchem.2c02893)

Test: RP, Thermo Scientific Acclaim RSLC 120 C18, 100 × 2.1 mm, 2.2 µm, 30 °C, 0.2 mL/min, estimated dead time 1.1 min; A: 90% water + 10% methanol + 0.01% formic acid + 5 mM ammonium formate, pH 3.61; B: methanol + 0.01% formic acid + 5 mM ammonium formate, pH 3.61; gradient (min/%B) 0/1 1/1 2/39 13/99.9 15/99.9 15.1/1 20.1/1
Conditions: stereoisomer not certain
In the case of `O=C(c1ccc(F)c2ccccc12)c1cn(CCCCCF)c2ccccc12` [JWH-412-5F. F2201], the LC retention time is reported as 11.6 min.
`CC(CCc1ccccc1)NCC(O)c1ccc(O)c(C(N)=O)c1` (stereo not drawn) [Labetalol] showed an LC retention time of 5.74 min.
For `c1ccc(CN(CCN2CCCC2)c2ccccc2)cc1` [Histapyrrodine], the LC retention time was 7.19 min.
For `COCCN(C(=O)CS(=O)(=O)O)c1c(C)cccc1C` [Dimethachlor-ESA], the LC retention time was 5.54 min.
In the case of `CC(=O)Nc1ccc(OCC(O)CNC(C)C)cc1` (stereo not drawn) [Practolol], the LC retention time is reported as 3.34 min.
For `CCC(C)(C)c1ccc(CC(C)CN2CC(C)OC(C)C2)cc1` (stereo not drawn) [Amorolfine], the LC retention time was 12.9 min.
Compound `Cc1ccc(N=CN(C)C=Nc2ccc(C)cc2C)c(C)c1` [Amitraz] has an LC retention time of 13.3 min.
`CN(C)CCN1C(=O)c2ccccc2N(C)c2ccccc21` [Dibenzepin] showed an LC retention time of 5.49 min.
For `CC(C)N(Cc1ccccc1)C(=O)C(C)(C)C` [Tebutame], the LC retention time was 10.2 min.
Compound `Cc1ccsc1C(=CCCN1CCCC(C(=O)O)C1)c1sccc1C` (stereo not drawn) [Tiagabine] has an LC retention time of 8.43 min.
Work on `Cn1ncc(N)c(Cl)c1=O` [Chloridazone-methyl-desphenyl] yielded an LC retention time of 3.53 min.
Work on `NS(=O)(=O)c1cc(C(=O)O)cc(N2CCCC2)c1Oc1ccccc1` [Piretanide] yielded an LC retention time of 7.17 min.
`Clc1cccc(Cl)c1NC1=NCCN1` [Clonidine] gave an LC retention time of 3.83 min.
For `CCC(NC)C(=O)c1ccccc1` (stereo not drawn) [Buphedrone], the LC retention time was 4.26 min.
`CN(C)CCC=C1c2ccccc2Sc2ccc(Cl)cc21` [Chlorprotixene] showed an LC retention time of 8.99 min.
Work on `CC(=O)N=c1sc(S(N)(=O)=O)nn1C` [Methazolamide] yielded an LC retention time of 4.28 min.
For `C=CC=CCC1=C(C)C(OC(=O)C2C(C=C(C)C(=O)OC)C2(C)C)CC1=O` (stereo not drawn) [Pyrethrin II], the LC retention time was 11.7 min.
In the case of `CCCc1nn(C)c2c(=O)[nH]c(-c3cc(C(=O)CN4CCN(CCO)CC4)ccc3OCC)nc12` [Acetildenafil-Hydroxy], the LC retention time is reported as 6.94 min.
Work on `Nc1ccc(S(=O)(=O)Nc2nccs2)cc1` [Sulfathiazole] yielded an LC retention time of 3.63 min.
In the case of `O=C1CN=C(C2=CCCCC2)c2cc(Cl)ccc2N1` [Tetrazepam-Nor], the LC retention time is reported as 10.1 min.
Work on `Cn1c(-c2ccccc2)cc(-c2ccccc2)[n+]1C` [Difenzoquat (Ion 1+)] yielded an LC retention time of 5.21 min.
`C=C1CC23CC1(O)CCC2C12C=CC(O)C(C)(C(=O)O1)C2C3C(=O)O` (stereo not drawn) [Gibberellic acid] gave an LC retention time of 4.91 min.
`CCCN(CCOc1c(Cl)cc(Cl)cc1Cl)C(=O)n1ccnc1` [Prochloraz] gave an LC retention time of 11.2 min.
`COC(=O)C1=C(C)NC(C)=C(C(=O)OC(C)C)C1c1cccc2nonc12` (stereo not drawn) [Isradipine] gave an LC retention time of 9.61 min.
Compound `O=C1CN=C(c2ccccc2Cl)c2cc(Cl)ccc2N1` [Delorazepam] has an LC retention time of 8.81 min.
`COc1cc(C)c(C(=O)c2c(OC)ccc(Br)c2C)c(OC)c1OC` [Metrafenone] showed an LC retention time of 11.4 min.
`Cc1nnc2n1-c1sc(Br)cc1C(c1ccccc1Cl)=NC2` [Brotizolam] showed an LC retention time of 8.28 min.
Work on `CCCCCn1cc(C(=O)Oc2cccc3cccnc23)c2ccccc21` [PB-22] yielded an LC retention time of 11.9 min.
`CCNc1nc(Cl)nc(NCC)n1` [Simazine] gave an LC retention time of 7.07 min.
For `COc1ccccc1OCC(O)CO` (stereo not drawn) [Guaifenesin], the LC retention time was 5.11 min.
For `O=S1(=O)OCC2C(CO1)C1(Cl)C(Cl)=C(Cl)C2(Cl)C1(Cl)Cl` (stereo not drawn) [Endosulfan-sulfate], the LC retention time was 11.1 min.
In the case of `COc1cccc(C(=O)CCNC(C)C(O)c2ccccc2)c1` (stereo not drawn) [Oxyfedrine], the LC retention time is reported as 6.14 min.
With `CCC(=O)OCC(=O)C1(OC(=O)CC)C(C)CC2C3CCC4=CC(=O)C=CC4(C)C3(F)C(O)CC21C` (stereo not drawn) [Betamethasone dipropionate] the LC retention time was 11.3 min.
With `O=C(Nc1ccc([N+](=O)[O-])cc1Cl)c1cc(Cl)ccc1O` [Niclosamide] the LC retention time was 12.6 min.
With `Cc1cccc(C)c1N(Cn1cccn1)C(=O)C(=O)O` [Metazachlor OA] the LC retention time was 5.09 min.
For `CC=CC(=O)N(CC)C(CC)C(=O)N(C)C` (stereo not drawn) [Crotethamide], the LC retention time was 6.13 min.
In the case of `c1cc2c(cc1CN1CCNCC1)OCO2` [Piperazine -1-Piperonyl], the LC retention time is reported as 4.22 min.
With `COC(=O)C(C)Oc1ccc(Oc2ccc(Cl)cc2Cl)cc1` (stereo not drawn) [Diclofop-methyl] the LC retention time was 12.3 min.
In the case of `COc1cc2nc(N3CCN(C(=O)c4ccco4)CC3)nc(N)c2cc1OC` [Prazosin], the LC retention time is reported as 5.34 min.
In the case of `COC(=O)COc1nc(Cl)c(Cl)cc1Cl` [Triclopyr-methylester], the LC retention time is reported as 10.4 min.
With `COC(=O)N(C(=O)N1COC2(C(=O)OC)Cc3cc(Cl)ccc3C2=N1)c1ccc(OC(F)(F)F)cc1` (stereo not drawn) [Indoxacarb] the LC retention time was 11.6 min.
`COP(=S)(OC)Oc1ccc(SC)c(C)c1` [Fenthion] showed an LC retention time of 11 min.
Compound `CCCCCn1cc(C(=O)Cc2ccccc2OC)c2ccccc21` [JWH-250] has an LC retention time of 11.8 min.
With `CNCCCC12CCC(c3ccccc31)c1ccccc12` [Maprotiline] the LC retention time was 8.08 min.
`CC(C)N(C(=O)C(=O)O)c1ccc(F)cc1` [Flufenacet-OXA] showed an LC retention time of 5.49 min.
Compound `O=C1CN=C(c2ccccc2F)c2cc(Br)ccc2N1` [Flubromazepam] has an LC retention time of 8.7 min.
For `Cc1c(F)c(F)c(COC(=O)C2C(C=C(Cl)C(F)(F)F)C2(C)C)c(F)c1F.Cc1c(F)c(F)c(COC(=O)C2C(C=C(Cl)C(F)(F)F)C2(C)C)c(F)c1F` (stereo not drawn) [Tefluthrin], the LC retention time was 13.4 min.
`O=C(O)COCC[N+]1([O-])CCN(C(c2ccccc2)c2ccc(Cl)cc2)CC1` (stereo not drawn) [Cetirizine-N-Oxide] showed an LC retention time of 9.13 min.
For `CCNc1nc(NC(C)(C)C)nc(SC)n1` [Terbutryn], the LC retention time was 10.2 min.
With `COc1cc2c(cc1OC)C(=O)C(CC1CCN(Cc3ccccc3)CC1)C2` (stereo not drawn) [Donepezil] the LC retention time was 5.81 min.
Compound `COc1cc(NS(=O)(=O)c2ccc(N)cc2)nc(OC)n1` [Sulfadimethoxine] has an LC retention time of 5.6 min.
`CCCS(=O)(=O)c1ccc2nc(NC(=O)OC)[nH]c2c1` [Albendazole sulfone] gave an LC retention time of 5.86 min.
`CCCc1nn(C)c2c(=S)nc(-c3cc(S(=O)(=O)N4CCN(CC)CC4)ccc3OCC)[nH]c12` [Sildenafil Thiohomo] gave an LC retention time of 10.6 min.
In the case of `O=c1[nH]c2c(c(=O)n1C1CCCCC1)CCC2` [Lenacil], the LC retention time is reported as 8.27 min.
For `CN1CCCCC1Cn1cc(C(=O)C2C(C)(C)C2(C)C)c2ccccc21` (stereo not drawn) [AB-005], the LC retention time was 8.81 min.
Compound `CCN1CCCC1CNC(=O)c1cc(S(N)(=O)=O)ccc1O` (stereo not drawn) [Sulpiride-O-Desmethyl] has an LC retention time of 3.18 min.
`CCCc1nn(C)c2c(=O)[nH]c(-c3cc(S(=O)(=O)N4CC(C)NC(C)C4)ccc3OCC)nc12` (stereo not drawn) [Sildenafil-Dimethyl] showed an LC retention time of 7.6 min.
`COP(=S)(OC)Oc1ccc(Sc2ccc(OP(=S)(OC)OC)cc2)cc1` [Temephos] showed an LC retention time of 12.4 min.
`O=C(NC(=O)c1c(F)cccc1F)Nc1ccc(Cl)c(Oc2ncc(C(F)(F)F)cc2Cl)c1` [Fluazuron] showed an LC retention time of 12.7 min.
In the case of `CC12CCC3c4ccc(O)cc4CCC3C1CCC2=O` (stereo not drawn) [E1 (1-3-5(10)-estratrien-3-ol-17-one estrone)], the LC retention time is reported as 9.56 min.
With `CNC(=O)Oc1ccccc1C1OCCO1` [Dioxacarb] the LC retention time was 5.16 min.
With `Cc1c(OCC(F)(F)F)ccnc1CS(=O)c1nc2ccccc2[nH]1` (stereo not drawn) [Lansoprazole] the LC retention time was 8.38 min.
`OCc1nnc2n1-c1ccc(Cl)cc1C(c1ccccc1)=NC2` [Alprazolam- alpha-Hydroxy] gave an LC retention time of 8.11 min.
Compound `CCNc1nc(NC(C)C)[nH]c(=O)n1` [Atrazine-2-hydroxy] has an LC retention time of 5.03 min.
Compound `NC(=O)c1cc[n+](CC2=C(C(=O)[O-])N3C(=O)C(NC(=O)Cc4cccs4)C3SC2)cc1` (stereo not drawn) [Cefalonium] has an LC retention time of 4.03 min.
Compound `CC(C)(C)NCC(O)c1ccc(O)c(NC(N)=O)c1` (stereo not drawn) [Carbuterol] has an LC retention time of 2.89 min.
Compound `CCOP(=S)(OCC)Oc1ccc([N+](=O)[O-])cc1` [Parathion] has an LC retention time of 10.7 min.
For `CNC1CCC(c2ccc(Cl)c(Cl)c2)c2ccccc21` (stereo not drawn) [Sertraline], the LC retention time was 8.94 min.
For `CC[N+]1(C)C2CC(OC(=O)C(CO)c3ccccc3)CC1C1OC12` (stereo not drawn) [Oxitropium], the LC retention time was 3.87 min.
In the case of `CN1C2CC(OC(=O)C(CO)c3ccccc3)CC1C1OC12` (stereo not drawn) [Scopolamine], the LC retention time is reported as 3.83 min.
Work on `CN1CCC(=C2c3ccccc3CCc3cccnc32)CC1` [Azatadine] yielded an LC retention time of 5.99 min.
Work on `Cc1c(C(C)C)c(=O)n(-c2ccccc2)n1C` [Propyphenazone] yielded an LC retention time of 7.23 min.
Work on `COP(=S)(OC)Oc1nc(Cl)c(Cl)cc1Cl` [Chlorpyriphos-methyl] yielded an LC retention time of 11.7 min.
`C=C1CC(=CC)C(=O)OC2CC[N+]3([O-])CC=C(COC(=O)C1(C)O)C23` (stereo not drawn) [Seneciphylline-N-oxide] showed an LC retention time of 4.5 min.
Compound `CN1CCC(=C2c3ccccc3CCc3sccc32)CC1` [Pizotifen] has an LC retention time of 7.86 min.
For `CCOP(=S)(OCC)SCS(=O)C(C)(C)C` (stereo not drawn) [Terbufos-sulfoxide], the LC retention time was 9 min.
`CCOP(=S)(OCC)SC(CCl)N1C(=O)c2ccccc2C1=O` (stereo not drawn) [Dialifos] showed an LC retention time of 11.5 min.
For `O=C(Oc1cccc2cccnc12)c1nn(CCCCCF)c2ccccc12` [NPB-22-5F], the LC retention time was 10.3 min.
In the case of `CCCN(CCC)CCc1c[nH]c2ccccc12` [DPT], the LC retention time is reported as 5.26 min.
`COC(=O)c1ccccc1CS(=O)(=O)NC(=O)Nc1nc(OC)cc(OC)n1` [Bensulfuron-methyl] gave an LC retention time of 8.77 min.
`CN(C)C(=O)SCCCCOc1ccccc1` [Fenothiocarb] gave an LC retention time of 10.7 min.
Work on `CC(CCc1ccc(O)cc1)NCC(O)c1ccc(O)cc1` (stereo not drawn) [Ractopamine] yielded an LC retention time of 4.39 min.
Work on `CN(C)C1C(=O)C(C(N)=O)=C(O)C2(O)C(=O)C3=C(O)c4c(O)cccc4C(C)(O)C3C(O)C12` (stereo not drawn) [Oxytetracycline] yielded an LC retention time of 4.6 min.
